Measured values as given in patent US20120010075A1 (priority 2009, published 2012).
Like-named read-outs stand apart in the source and are kept apart here.

What was measured:
Phytophthora infestans = type: in vivo, Phytophthora infestans on tomato; details: applied 24 h before inoculation, assessed 7 days after inoculation
[1] = test system: Leptosphaeria nodorum (LEPTNO); test: In vitro fungitoxicity of hydrazones with and without copper towards Leptosphaeria nodorum (Example 26); type: cell-based; details: 72 h at 25° C.; for inhibition of growth at 0.05 µg/mL: Parastagonospora nodorum, 72 h, copper-minus medium, read-out: LEPTNO % Inhn. Minus Copper Observed
[2] = hydrazone 50 ppm with 50 μM CuCl2.2H2O, tomato late blight
[3] = test compound Concn. 0.05 μg/mL
[4] = copper-plus medium (CuCl2 10 μM), test compound Concn. 0.05 μg/mL
[5] = hydrazone 50 ppm + 50 μM CuCl2.2H2O, tomato
[6] = compound 0.05 μg/mL, copper-plus medium (CuCl2.2H2O)

Compound: O=C(N/N=C/c1c(C(F)(F)F)ccc(Cl)c1O)c1ccc(F)cc1 [Example 450]
- TLB % Control (Phytophthora infestans; [2]): 100.0%
- melting point: 231 to 233 °C
- inhibition of growth at 0.05 µg/mL [1, 3]: 1.1%
- LEPTNO % Inhn. Plus Copper Observed [1, 4]: 93.5%

Compound: Cc1cccc(C(=O)N/N=C/c2ccc(Cl)cc2O)c1 [Example 387]
- TLB % Control (Phytophthora infestans; [2]): 87.0%
- melting point: 201 to 203 °C
- inhibition of growth at 0.05 µg/mL [1, 3]: 13.5%
- LEPTNO % Inhn. Plus Copper Observed [1, 4]: 96.9%

Compound: C/C(=N\NC(=O)c1cccc(Cl)c1)c1cc(C)ccc1O [Example 316]
- TLB % Control (Phytophthora infestans; [2]): 14.0%
- melting point: 231 to 241 °C
- inhibition of growth at 0.05 µg/mL [1, 3]: 4.5%
- LEPTNO % Inhn. Plus Copper Observed [1, 4]: 97.1%

Compound: Cc1cccc(C(=O)N/N=C/c2cccc(Cl)c2O)c1 [Example 423]
- TLB % Control (Phytophthora infestans; [2]): 98.0%
- melting point: 166 to 169 °C
- inhibition of growth at 0.05 µg/mL [1, 3]: 0.8%
- LEPTNO % Inhn. Plus Copper Observed [1, 4]: 98.0%

Compound: C/C(=N\NC(=O)c1ccc(Br)cc1)c1ccc(Cl)cc1O [Example 460]
- TLB % Control (Phytophthora infestans; [2]): 39.0%
- melting point: 258 to 259 °C
- inhibition of growth at 0.05 µg/mL [1, 3]: 0%
- LEPTNO % Inhn. Plus Copper Observed [1, 4]: 97.6%

Compound: O=C(N/N=C/c1c(Cl)ccc(Cl)c1O)c1ccccc1 [Example 247]
- TLB % Control (Phytophthora infestans; [5]): 84.7%
- melting point: 204 to 205 °C
- inhibition of growth at 0.05 µg/mL ([1]; compound 0.05 μg/mL): 10.1%
- LEPTNO % Inhn. Plus Copper Observed [1, 6]: 94.0%

Compound: CC/C(=N\NC(=O)c1ccc(C)cc1C)c1ccccc1O [Example 30]
- TLB % Control (Phytophthora infestans; [5]): 40.7%
- melting point: 159 to 160 °C
- inhibition of growth at 0.05 µg/mL ([1]; compound 0.05 μg/mL): 0%
- LEPTNO % Inhn. Plus Copper Observed [1, 6]: 97.0%

Compound: O=C(N/N=C/c1cc(C(F)(F)F)cc(Cl)c1O)c1ccccc1C(F)(F)F [Example 330]
- TLB % Control (Phytophthora infestans; [2]): 99.0%
- melting point: 169 to 171 °C
- inhibition of growth at 0.05 µg/mL [1, 3]: 5.3%
- LEPTNO % Inhn. Plus Copper Observed [1, 4]: 92.9%

Compound: C/C(=N\NC(=O)c1ccccc1)c1cc(F)cc(F)c1O [Example 572]
- TLB % Control (Phytophthora infestans; [2]): 94.0%
- melting point: 222 to 225 °C
- inhibition of growth at 0.05 µg/mL [1, 3]: 2.5%
- LEPTNO % Inhn. Plus Copper Observed [1, 4]: 97.4%

Compound: O=C(N/N=C/c1ccc(Cl)c(Cl)c1O)c1ccc(F)cc1 [Example 357]
- TLB % Control (Phytophthora infestans; [2]): 93.0%
- melting point: 244 to 246 °C
- inhibition of growth at 0.05 µg/mL [1, 3]: 56.7%
- LEPTNO % Inhn. Plus Copper Observed [1, 4]: 97.4%

Compound: Cc1ccc(C(=O)N/N=C/c2cccc(C(F)(F)F)c2O)c(O)c1 [Example 352]
- TLB % Control (Phytophthora infestans; [2]): 100.0%
- melting point: 248 to 253 °C
- inhibition of growth at 0.05 µg/mL [1, 3]: 8.8%
- LEPTNO % Inhn. Plus Copper Observed [1, 4]: 98.4%

Compound: O=C(N/N=C/c1c(O)ccc(Cl)c1Cl)c1ccccc1 [Example 241]
- TLB % Control (Phytophthora infestans; [5]): 62.7%
- melting point: 273 to 274 °C
- inhibition of growth at 0.05 µg/mL ([1]; compound 0.05 μg/mL): 0.5%
- LEPTNO % Inhn. Plus Copper Observed [1, 6]: 97.0%

Compound: COc1ccc(/C(C)=N/NC(=O)c2ccccc2C)c(O)c1 [Example 281]
- TLB % Control (Phytophthora infestans; [5]): 67.0%
- melting point: 170 to 172 °C
- inhibition of growth at 0.05 µg/mL ([1]; compound 0.05 μg/mL): 1.4%
- LEPTNO % Inhn. Plus Copper Observed [1, 6]: 98.4%

Compound: C/C(=N\NC(=O)c1ccccc1Cl)c1cc(C(F)(F)F)ccc1O [Example 531]
- TLB % Control (Phytophthora infestans; [2]): 80.0%
- melting point: 189 to 191 °C
- inhibition of growth at 0.05 µg/mL [1, 3]: 0%
- LEPTNO % Inhn. Plus Copper Observed [1, 4]: 97.3%

Compound: O=C(N/N=C/c1c(O)cccc1Cl)c1ccccc1C(F)(F)F [Example 407]
- TLB % Control (Phytophthora infestans; [2]): 70.0%
- melting point: 222 to 226 °C
- inhibition of growth at 0.05 µg/mL [1, 3]: 0%
- LEPTNO % Inhn. Plus Copper Observed [1, 4]: 92.0%

Compound: Cc1ccc(C(=O)N/N=C/c2cc(C(F)(F)F)ccc2O)c(O)c1 [Example 445]
- TLB % Control (Phytophthora infestans; [2]): 90.0%
- melting point: 264 to 271 °C
- inhibition of growth at 0.05 µg/mL [1, 3]: 13.2%
- LEPTNO % Inhn. Plus Copper Observed [1, 4]: 100.0%

Compound: O=C(N/N=C/c1c(O)cccc1Cl)c1cccc([N+](=O)[O-])c1 [Example 404]
- TLB % Control (Phytophthora infestans; [2]): 97.0%
- melting point: 269 to 270 °C
- inhibition of growth at 0.05 µg/mL [1, 3]: 0%
- LEPTNO % Inhn. Plus Copper Observed [1, 4]: 94.9%

Compound: C/C(=N\NC(=O)c1cccc(C)c1)c1ccc(Cl)cc1O [Example 253]
- TLB % Control (Phytophthora infestans; [5]): 14.0%
- melting point: 210 to 211 °C
- inhibition of growth at 0.05 µg/mL ([1]; compound 0.05 μg/mL): 4.9%
- LEPTNO % Inhn. Plus Copper Observed [1, 6]: 98.0%

Compound: C/C(=N\NC(=O)c1ccc(C(F)(F)F)cc1)c1ccc(Cl)cc1O [Example 461]
- TLB % Control (Phytophthora infestans; [2]): 54.0%
- melting point: 244 to 245 °C
- inhibition of growth at 0.05 µg/mL [1, 3]: 3.4%
- LEPTNO % Inhn. Plus Copper Observed [1, 4]: 96.7%

Compound: O=C(N/N=C/c1ccc(Cl)c(Cl)c1O)c1cccc(Cl)c1 [Example 358]
- TLB % Control (Phytophthora infestans; [2]): 100.0%
- melting point: 219 to 222 °C
- inhibition of growth at 0.05 µg/mL [1, 3]: 12.7%
- LEPTNO % Inhn. Plus Copper Observed [1, 4]: 98.3%

Compound: Cc1cccc(/C=N/NC(=O)c2ccccc2)c1O [Example 232]
- TLB % Control (Phytophthora infestans; [5]): 57.6%
- melting point: 186 to 188 °C
- inhibition of growth at 0.05 µg/mL ([1]; compound 0.05 μg/mL): 2.3%
- LEPTNO % Inhn. Plus Copper Observed [1, 6]: 97.5%

Compound: Cc1ccc(C(=O)N/N=C/c2c(C(F)(F)F)ccc(Cl)c2O)c(O)c1 [Example 457]
- TLB % Control (Phytophthora infestans; [2]): 100.0%
- melting point: 258 to 260 °C
- inhibition of growth at 0.05 µg/mL [1, 3]: 6.7%
- LEPTNO % Inhn. Plus Copper Observed [1, 4]: 100.0%

Compound: O=C(N/N=C/c1cc(Cl)cc(Cl)c1O)c1ccc(C(F)(F)F)cc1 [Example 81]
- TLB % Control (Phytophthora infestans; [5]): 97.0%
- melting point: 238 to 240 °C
- inhibition of growth at 0.05 µg/mL ([1]; compound 0.05 μg/mL): 2.4%
- LEPTNO % Inhn. Plus Copper Observed [1, 6]: 96.1%

Compound: C/C(=N\NC(=O)c1ccccc1)c1cc(C)ccc1O [Example 311]
- TLB % Control (Phytophthora infestans; [2]): 37.0%
- melting point: 197 to 199 °C
- inhibition of growth at 0.05 µg/mL [1, 3]: 3.3%
- LEPTNO % Inhn. Plus Copper Observed [1, 4]: 98.3%

Compound: C/C(=N\NC(=O)c1ccccc1Cl)c1cc(Cl)ccc1O [Example 508]
- TLB % Control (Phytophthora infestans; [2]): 92.0%
- melting point: 210 to 217 °C
- inhibition of growth at 0.05 µg/mL [1, 3]: 9.4%
- LEPTNO % Inhn. Plus Copper Observed [1, 4]: 97.1%

Compound: C/C(=N\NC(=O)c1cccc(C)c1)c1cc(Cl)ccc1O [Example 506]
- TLB % Control (Phytophthora infestans; [2]): 44.0%
- melting point: 222 to 228 °C
- inhibition of growth at 0.05 µg/mL [1, 3]: 2.7%
- LEPTNO % Inhn. Plus Copper Observed [1, 4]: 97.5%

Compound: O=C(N/N=C/c1cc(Cl)cc(C(F)(F)F)c1O)c1cccc(F)c1 [Example 378]
- TLB % Control (Phytophthora infestans; [2]): 97.0%
- melting point: 219 to 221 °C
- inhibition of growth at 0.05 µg/mL [1, 3]: 26.3%
- LEPTNO % Inhn. Plus Copper Observed [1, 4]: 98.4%

Compound: Cc1cccc(C(=O)N/N=C/c2cc(C(F)(F)F)ccc2O)c1 [Example 435]
- TLB % Control (Phytophthora infestans; [2]): 100.0%
- melting point: 192 to 194 °C
- inhibition of growth at 0.05 µg/mL [1, 3]: 4.7%
- LEPTNO % Inhn. Plus Copper Observed [1, 4]: 97.2%

Compound: C/C(=N\NC(=O)c1ccc(Br)cc1)c1cc(Br)cc(Br)c1O [Example 547]
- TLB % Control (Phytophthora infestans; [2]): 88.0%
- melting point: 264 to 266 °C
- inhibition of growth at 0.05 µg/mL [1, 3]: 10.8%
- LEPTNO % Inhn. Plus Copper Observed [1, 4]: 97.7%

Compound: COc1ccc(/C(C)=N/NC(=O)c2ccccc2)c(O)c1 [Example 280]
- TLB % Control (Phytophthora infestans; [5]): 88.0%
- melting point: 211 to 213 °C
- inhibition of growth at 0.05 µg/mL ([1]; compound 0.05 μg/mL): 2.2%
- LEPTNO % Inhn. Plus Copper Observed [1, 6]: 98.2%

Compound: COc1ccc(/C(C)=N/NC(=O)c2ccccc2C)c(O)c1OC [Example 552]
- TLB % Control (Phytophthora infestans; [2]): 71.0%
- melting point: 150 to 152 °C
- inhibition of growth at 0.05 µg/mL [1, 3]: 0%
- LEPTNO % Inhn. Plus Copper Observed [1, 4]: 94.2%

Compound: C/C(=N\NC(=O)c1ccccc1Br)c1cc(C(F)(F)F)ccc1O [Example 537]
- TLB % Control (Phytophthora infestans; [2]): 90.0%
- melting point: 192 to 200 °C
- inhibition of growth at 0.05 µg/mL [1, 3]: 12.2%
- LEPTNO % Inhn. Plus Copper Observed [1, 4]: 96.2%
